In the experiment the test system is HIV-1 (strain IIIIB). Description: MT4 cell assay (propidium iodide readout). The experiment is classed as cell-based. The following applies: Human immunodeficiency virus 1, control and standard, MT4 cells, read-out: expected range of IC50 values. As for the experimental part: Antiviral HIV activity and compound-induced cytotoxicity were measured in parallel by means of a propidium iodide based procedure in the human T-cell lymphotropic virus transformed cell line MT4. Aliquots of the test compounds were serially diluted in medium (RPMI 1640, 10% fetal calf serum (FCS), and gentamycin) in 96-well plates (Costar 3598) using a Cetus Pro/Pette. Exponentially growing MT4 cells were harvested and centrifuged at 1000 rpm for 10 min in a Jouan centrifuge (model CR 4 12). Cell pellets were resuspended in fresh medium (RPMI 1640, 20% FCS, 20% IL-2, and gentamycin) to a density of 5×10^5 cells/ml. […] The plates were analyzed in an automated assay instrument (Screen Machine, Idexx Laboratories). […] The assay makes use of a propidium iodide dye to estimate the DNA content of each well. • B. For MTS readout, 20 μl CellTiter 96 AQ One Solution reagent (Promega #G3582) was added to each well. At 75 minutes following the addition of MTS reagent, absobance was read at 492 nm using a Tecan Sunrise 96-well plate reader. […]
For each assay plate, the results (relative fluorescence units, rfU, or OD values) of wells containing uninfected cells or infected cells with no compound were averaged, respectively. […] Percent of cells remaining is determined by the following formula: Percent of cells remaining=(compound-treated uninfected cells, rfU, or OD values/untreated uninfected cells)×100. […]

What is called IC50 is the point on the concentration scale where inhibition reaches its midpoint. Regarding `Cc1cn([C@H]2C[C@H](N=[N+]=[N-])[C@@H](CO)O2)c(=O)[nH]c1=O` [3′-azido-3′-deoxythymidine], the IC50 is 40 to 120 nM.

(Values after patent publication US6995283B2, “Benzophenones as inhibitors of reverse transcriptase” (priority 2001, dated 2006).)
